Assay results from patent US6555535B2, “Tricyclic biphenyl sulfonamide matrix metalloproteinase inhibitors” (Warner-Lambert Company, priority 2001, dated 2003).

Legend:
Format in all cases: biochemical
[1] = biological target: MMP-3CD (Homo sapiens, UniProt P08254); assay: thiopeptolide hydrolysis assay, catalytic domain of stromelysin-1; details: thiopeptolide substrate, MES buffer pH 6.0
Source text: (§1) The assays measure the amount by which a test compound reduces the hydrolysis of a thiopeptolide substrate catalyzed by a matrix metalloproteinase enzyme. Such assays are described in detail by Ye et al., in Biochemistry, 1992;31(45):11231-11235, which is incorporated herein by reference.
(§2) Thiopeptolide substrates show virtually no decomposition or hydrolysis at or below neutral pH in the absence of a matrix metalloproteinase enzyme. A typical thiopeptolide substrate commonly utilized for assays is Ac-Pro-Leu-Gly-thioester-Leu-Leu-Gly-OEt. A 100 μL assay mixture will contain 50 mM of N-2-hydroxyethylpiperazine-N′-2-ethanesulfonic acid buffer (“HEPES”) at pH 7.0, 10 mM CaCl2, 100 μM thiopeptolide substrate, and 1 mM 5,5′-dithio-bis-(2-nitro-benzoic acid) (DTNB). The thiopeptolide substrate concentration may be varied from, for example, 10 to 800 μM to obtain Km and Kcat values. The change in absorbance at 405 nm is monitored on a Thermo Max microplate reader (Molecular Devices, Menlo Park, Calif.) at room temperature (22° C.). The calculation of the amount of hydrolysis of the thiopeptolide substrate is based on E412=13600 M^−1 cm^−1 for the DTNB-derived product 3-carboxy-4-nitrothiophenoxide. Assays are carried out with and without matrix metalloproteinase inhibitor compounds, and the amount of hydrolysis is compared for a determination of inhibitory activity of the test compounds.
(§3) Several representative compounds have been evaluated for their ability to inhibit various matrix metalloproteinase enzymes. In Table 1, MMP-1FL refers to full length interstitial collagenase; MMP-2FL refers to full length Gelatinase A; MMP-3CD refers to the catalytic domain of stromelysin-1; MMP-7FL refers to full length matrilysin; MMP-9FL refers to full length Gelatinase B; MMP-13CD refers to the catalytic domain of collagenase 3; and MMP-14CD refers to the catalytic domain of MMP-14. Test compounds were evaluated at various concentrations in order to determine their respective IC50 values, the micromolar concentration of compound required to cause a 50% inhibition of the catalytic activity of the respective enzyme.
It should be appreciated that the assay buffer used with MMP-3CD was 50 mM of 2-morpholinoethanesulfonic acid monohydrate (“MES”) at pH 6.0, rather than the HEPES buffer at pH 7.0 described above.

[2] = biological target: T1, MMP-7FL (Homo sapiens, UniProt P09237); assay: thiopeptolide hydrolysis assay, full length matrilysin; details: thiopeptolide substrate, HEPES pH 7.0, 22° C.
T1 sequence (P09237 95-267): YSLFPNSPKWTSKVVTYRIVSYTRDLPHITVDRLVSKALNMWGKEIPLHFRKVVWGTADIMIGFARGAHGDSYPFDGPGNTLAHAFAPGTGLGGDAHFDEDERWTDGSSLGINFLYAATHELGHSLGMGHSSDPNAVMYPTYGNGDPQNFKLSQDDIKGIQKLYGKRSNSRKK
Source text: as §1, §2, §3

[3] = biological target: MMP-9FL (Homo sapiens, UniProt P14780); assay: thiopeptolide hydrolysis assay, full length Gelatinase B; details: thiopeptolide substrate, HEPES pH 7.0, 22° C.
Source text: as §1, §2, §3

[4] = biological target: T2, MMP-1FL (Homo sapiens, UniProt P03956); assay: thiopeptolide hydrolysis assay, full length interstitial collagenase; details: thiopeptolide substrate, HEPES pH 7.0, 22° C.
T2 sequence (P03956 100-469): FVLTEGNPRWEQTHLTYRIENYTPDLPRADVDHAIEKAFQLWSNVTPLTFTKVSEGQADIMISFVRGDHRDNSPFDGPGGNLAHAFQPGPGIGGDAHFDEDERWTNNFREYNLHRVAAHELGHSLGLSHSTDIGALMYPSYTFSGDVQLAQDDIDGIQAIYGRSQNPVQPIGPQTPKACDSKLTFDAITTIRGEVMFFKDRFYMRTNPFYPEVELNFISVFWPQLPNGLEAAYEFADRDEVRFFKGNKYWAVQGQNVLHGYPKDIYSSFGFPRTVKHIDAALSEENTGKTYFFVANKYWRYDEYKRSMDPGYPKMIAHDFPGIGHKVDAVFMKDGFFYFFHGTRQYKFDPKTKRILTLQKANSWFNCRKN
Source text: as §1, §2, §3

[5] = biological target: MMP-13CD (Homo sapiens, UniProt P45452); assay: thiopeptolide hydrolysis assay, catalytic domain of collagenase 3; details: thiopeptolide substrate, HEPES pH 7.0, 22° C.
Source text: as §1, §2, §3

[6] = biological target: MMP-14CD (Homo sapiens, UniProt P50281); assay: thiopeptolide hydrolysis assay, catalytic domain of MMP-14; details: thiopeptolide substrate, HEPES pH 7.0, 22° C.
Source text: as §1, §2, §3

[7] = biological target: T3, MMP-2FL (Homo sapiens, UniProt P08253); assay: thiopeptolide hydrolysis assay, full length Gelatinase A; details: thiopeptolide substrate, HEPES pH 7.0, 22° C.
T3 sequence (P08253 110-660): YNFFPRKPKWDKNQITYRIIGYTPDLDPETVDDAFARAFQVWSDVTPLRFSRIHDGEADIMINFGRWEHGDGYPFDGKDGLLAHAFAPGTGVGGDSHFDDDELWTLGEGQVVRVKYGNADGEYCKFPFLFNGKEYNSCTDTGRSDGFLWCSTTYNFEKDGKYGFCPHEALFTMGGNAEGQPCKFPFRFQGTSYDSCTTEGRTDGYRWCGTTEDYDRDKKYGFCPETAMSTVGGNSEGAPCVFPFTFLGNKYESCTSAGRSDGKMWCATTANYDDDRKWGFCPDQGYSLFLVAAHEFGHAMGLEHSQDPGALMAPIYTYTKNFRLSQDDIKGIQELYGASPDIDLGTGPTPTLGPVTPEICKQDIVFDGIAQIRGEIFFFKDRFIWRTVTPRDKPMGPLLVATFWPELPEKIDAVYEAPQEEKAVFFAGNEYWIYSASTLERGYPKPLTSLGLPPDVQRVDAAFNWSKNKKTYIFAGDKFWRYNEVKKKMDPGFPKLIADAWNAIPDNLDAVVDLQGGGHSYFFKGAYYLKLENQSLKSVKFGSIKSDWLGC
Source text: as §1, §2, §3

MMP-3CD, sequence (P08254 100-272 limits assumed): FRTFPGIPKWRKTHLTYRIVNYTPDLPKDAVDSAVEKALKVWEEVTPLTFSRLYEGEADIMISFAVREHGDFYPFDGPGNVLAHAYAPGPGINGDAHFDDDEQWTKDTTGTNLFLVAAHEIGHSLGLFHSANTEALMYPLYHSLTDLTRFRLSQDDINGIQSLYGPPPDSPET
MMP-9FL, sequence (P14780 94-707): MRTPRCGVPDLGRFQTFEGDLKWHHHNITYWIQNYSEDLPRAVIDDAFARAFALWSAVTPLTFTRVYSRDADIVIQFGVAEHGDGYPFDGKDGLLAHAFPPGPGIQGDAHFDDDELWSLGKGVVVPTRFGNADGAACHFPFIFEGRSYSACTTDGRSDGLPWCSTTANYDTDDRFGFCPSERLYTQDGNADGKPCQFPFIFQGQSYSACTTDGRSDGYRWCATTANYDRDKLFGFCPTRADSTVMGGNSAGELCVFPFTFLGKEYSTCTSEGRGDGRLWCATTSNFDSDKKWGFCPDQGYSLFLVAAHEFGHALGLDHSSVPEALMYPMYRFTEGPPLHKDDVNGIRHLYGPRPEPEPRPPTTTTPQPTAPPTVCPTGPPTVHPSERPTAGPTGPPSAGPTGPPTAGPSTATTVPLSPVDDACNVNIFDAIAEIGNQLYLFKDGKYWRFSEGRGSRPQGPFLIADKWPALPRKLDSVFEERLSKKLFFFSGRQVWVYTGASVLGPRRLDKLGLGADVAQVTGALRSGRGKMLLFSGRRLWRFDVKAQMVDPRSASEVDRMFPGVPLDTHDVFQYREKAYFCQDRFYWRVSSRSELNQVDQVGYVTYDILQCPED

| IC50 [1] [nM] | IC50 [2] [nM] | IC50 [3] [nM] | IC50 [4] [nM] | IC50 [5] [nM] | IC50 [6] [nM] | IC50 [7] [nM] | SMILES |
| --- | --- | --- | --- | --- | --- | --- | --- |
| 39 | 100000 | 54000 | 6900 | 1310 | 150 | 390 | CC1(C)SCCN(S(=O)(=O)c2ccc3c4c(oc3c2)CCCC4)[C@H]1C(=O)O [Example 3, (S)-2,2-Dimethyl-4-(6,7,8,9-tetrahydro-dibenzofuran-3-sulfonyl)thiomorpholine-3-carboxylic Acid] |
| 9 | 230 | 210 | 69 | 12 | 52 | 82 | CC1(C)SCCN(S(=O)(=O)c2ccc3c4c(oc3c2)CCCC4)[C@H]1C(=O)NO [Example 4, (S)-2,2-Dimethyl-4-(6,7,8,9-tetrahydro-dibenzofuran-3-sulfonyl)thiomorpholine-3-carboxylic Hydroxamide] |
| 15 | 420 | 450 | 970 | 6.2 | 53 | 220 | CC1(C)C(C(=O)NO)N(S(=O)(=O)c2ccc3c4c(oc3c2)CCCCC4)CCS1(=O)=O (stereo not shown) [Example 7, 2,2-Dimethyl-1,1-dioxo-4-(6,7,8,9-tetrahydro-5H-10-oxa-benzo{a}azulene-2-sulfonyl)-1l^6-thiomorpholine-3-carboxylic Acid Hydroxyamide] |

| SMILES | IC50 [1] [nM] | IC50 [2] [nM] | IC50 [3] [nM] | IC50 [4] [nM] | IC50 [5] [nM] | IC50 [6] [nM] | IC50 [7] [nM] |
| --- | --- | --- | --- | --- | --- | --- | --- |
| CC1(C)C(C(=O)O)N(S(=O)(=O)c2ccc3c4c(oc3c2)CCCCC4)CCS1(=O)=O (stereo not shown) [Example 6, 2,2-Dimethyl-1,1-dioxo-4-(6,7,8,9-tetrahydro-5H-10-oxa-benzo{a}azulene-2-sulfonyl)-1l^6-thiomorpholine-3-carboxylic Acid] | 37 | 41000 | 70000 | 40000 | 2100 | 93 | 600 |
